Reference: patent EP4799620A1, “ORAL PHARMACEUTICAL FORM FOR BIPHASIC RELEASE, COMPOSED OF A MULTIP[…], PROCESS FOR PREPARING SAME AND […] USE OF ORAL FORM” (Prati, Donaduzzi & Cia LTDA, priority 2023, dated 2025)
Where two headings read alike, the source gives them in different places.

Columns and labels:
postmenopausal women = conditions: trazodone 50-100 mg/day; cited from earlier work
healthy volunteers = conditions: daily doses of 50 and 100 mg; cited from earlier work
[1] = system: patients with secondary insomnia; assay: Randomized, controlled, cross-over clinical trial: questionnaires and subjective sleep perception; type: in vivo; conditions: for Sleep latency / Total sleep time: subjective
Experimental: (§1) Based on the foregoing, a double-blind clinical trial was conducted to evaluate the impact of the medication on sleep quality and total sleep time, as well as to quantify the reduction in sleep latency in patients diagnosed with comorbid insomnia, through actigraphy and assessment scales.
(§2) The objective of the clinical trial was to evaluate the impact of the medication on sleep quality and total sleep time, as well as to quantify the reduction in sleep latency in patients diagnosed with comorbid insomnia, through actigraphy and assessment scales. The study was conducted with 30 patients.
TABLE 1: RESULTS OF THE ANALYSIS OF THE QUESTIONNAIRES AND OF THE SUBJECTIVE SLEEP PERCEPTION.

[2] = 50 mg/day; double-blind controlled study; cited from earlier work
[3] = cited from earlier work
pregnant women = conditions: 50 mg/day; 67 pregnant women; third trimester of pregnancy; cited from earlier work
[4] = system: patients with Alzheimer's disease; conditions: 50 mg/day; cited from earlier work
[5] = system: patients with secondary insomnia; assay: Randomized, controlled, cross-over clinical trial: actigraphy analysis; type: in vivo
Experimental: as §1, §2
Of the 29 patients, 24 correctly completed the proposed actigraphy usage period. TABLE 2: ACTIGRAPHY ANALYSIS RESULTS.

[6] = in water; cited from earlier work

## CN1CCN(C(=O)OC2c3nccnc3C(=O)N2c2ccc(Cl)cn2)CC1 (stereo not drawn) [zopiclone]
Postmenopausal women
  sleep quality and sexual dysfunction: improved

## O=c1n(CCCN2CCN(c3cccc(Cl)c3)CC2)nc2ccccn12 [Trazodone]
Healthy volunteers
  slow waves during sleep: increased
Postmenopausal women
  sleep quality and sexual dysfunction: improved
[1]; 50 mg, Consultation 1
  Hamilton Depression Scale: 16.31±8.60@#
  Insomnia Severity Scale: 19.88±4.04@#
  Nights with awakenings/week: 3.00±0.00@
  Pittsburgh Sleep Quality Questionnaire: 14.13±3.11@#
[1]; 50 mg, Consultation 2
  Hamilton Depression Scale: 11.88±6.06@
  Insomnia Severity Scale: 17.69±6.18&*
  Nights with awakenings/week: 2.40±1.05
  Pittsburgh Sleep Quality Questionnaire: 11.19±2.90
[1]; 50 mg, Consultation 3
  Hamilton Depression Scale: 11.13±6.98
  Insomnia Severity Scale: 11.14±7.24#&
  Nights with awakenings/week: 2.00±1.17
[1]; 50 mg, Consultation 4
  Hamilton Depression Scale: 7,875±4.28
  Insomnia Severity Scale: 7.50±4.48@#
  Nights with awakenings/week: 1.06±1.39@#
  Pittsburgh Sleep Quality Questionnaire: 9.81±3.50@
[1]; 75 mg, Consultation 1
  Hamilton Depression Scale: 18.31±11.41@
  Insomnia Severity Scale: 21.08±3.84@
  Nights with awakenings/week: 2.84±0.55
  Pittsburgh Sleep Quality Questionnaire: 13.54±3.43@
[1]; 75 mg, Consultation 2
  Hamilton Depression Scale: 14.85±6.65
  Insomnia Severity Scale: 19.75±3.84
  Nights with awakenings/week: 3.00±0.00
  Pittsburgh Sleep Quality Questionnaire: 12.77±2.20
[1]; 75 mg, Consultation 3
  Hamilton Depression Scale: 12.5±6.81
  Insomnia Severity Scale: 16.69±8.34
  Nights with awakenings/week: 2.58±0.90
  Pittsburgh Sleep Quality Questionnaire: 13.58±3.08
[1]; 75 mg, Consultation 4
  Hamilton Depression Scale: 8.08±3.57@#
  Insomnia Severity Scale: 7,33±5,61@#
  Nights with awakenings/week: 1.38±1.55
  Pittsburgh Sleep Quality Questionnaire: 9.91±3.26@#
[1]; no dose stated, Consultation 1
  Hamilton Depression Scale: 17,21±9,82@#
  Insomnia Severity Scale: 20.41±3.93@#
  Nights with awakenings/week: 2.93±0.37@
  Pittsburgh Sleep Quality Questionnaire: 13.86±3.21@
  Sleep latency: 69,59±74,51@ min.
  Total sleep time: 277.20±109.20@ min.
[1]; no dose stated, Consultation 2
  Hamilton Depression Scale: 13.21±6.40&*
  Insomnia Severity Scale: 18.57±5.32&*
  Nights with awakenings/week: 2.67±0.82
  Pittsburgh Sleep Quality Questionnaire: 11.9±2.69
  Sleep latency: 51.76 ± 36.18 min
  Total sleep time: 291.70 ± 81.33 min
[1]; no dose stated, Consultation 3
  Hamilton Depression Scale: 11,74±6,80#&
  Insomnia Severity Scale: 13.81±8.14#&
  Nights with awakenings/week: 2.26±1.08
  Pittsburgh Sleep Quality Questionnaire: 12.59±3.68
  Sleep latency: 51.76 ± 50.13 min
  Total sleep time: 322.80 ± 94.07 min
[1]; no dose stated, Consultation 4
  Hamilton Depression Scale: 7.96±3.93@*
  Insomnia Severity Scale: 7.42±4.90@#
  Nights with awakenings/week: 1.20±1.45@#
  Pittsburgh Sleep Quality Questionnaire: 9.85±3.34@#
  Sleep latency: 29,69±25,24@# min.
  Total sleep time: 341.80±110.00@ min.
[1]; 50mg, Consultation 1
  Sleep latency: 50.5 ± 40.46 min
  Total sleep time: 273.80 ± 95.42 min
[1]; 50mg, Consultation 2
  Sleep latency: 37.19 ± 20.00 min
  Total sleep time: 307.50 ± 75.50 min
[1]; 50mg, Consultation 3
  Sleep latency: 42,56±47,20 min.
  Total sleep time: 348.80 ± 103.30 min
[1]; 50mg, Consultation 4
  Sleep latency: 26.31 ± 25.20 min
[1]; 75mg, Consultation 1
  Sleep latency: 93.08 ± 99.11 min
  Total sleep time: 281.50 ± 128.20 min
[1]; 75mg, Consultation 2
  Sleep latency: 69.69 ± 43.86 min
  Total sleep time: 272.30 ± 87.00 min
[1]; 75mg, Consultation 3
  Sleep latency: 63.08 ± 53.17 min
  Total sleep time: 290.80 ± 72.85 min
[1]; 75mg, Consultation 4
  Sleep latency: 33.85 ± 25.67 min
  Total sleep time: 378.50 ± 89.61 min
[2]
  maintaining sleep: effective
[3]; above its pKa, neutral and basic conditions
  solubility: very low
[3]; acidic medium, pH of the medium below its pKa
  solubility: highly soluble
Pregnant women
  Sedative effects for the treatment of insomnia: efficacy
[4]
  treatment of insomnia: safe and effective
[5]; 50mg, Actigraphy 1
  Awakenings: 12.97±3.85@
  Sleep latency: 6.13 ± 5.56 min
  Total sleep time: 50mg 461.80±106.60 min.
  WASO: 84.20 ± 26.09 min
[5]; 50mg, Actigraphy 2
  Awakenings: 10.68±3.44
  Sleep latency: 7.16 ± 7.48 min
  Total sleep time: 479.90 ± 95.25 min
  WASO: 75.38 ± 29.34 min
[5]; 50mg, Actigraphy 3
  Awakenings: 11.35±3.59@
  Sleep latency: 4.40 ± 4.40 min
  Total sleep time: 476.00 ± 91.94 min
  WASO: 73 ± 26.45 min
[5]; 75mg, Actigraphy 1
  Awakenings: 12.64±2.57
  Sleep latency: 6.77 ± 5.96 min
  Total sleep time: 75 mg 486.00±151.70 min.
  WASO: 82.33 ± 20.21 min
[5]; 75mg, Actigraphy 2
  Awakenings: 11.37±1.56
  Sleep latency: 5.28 ± 4.71 min
  Total sleep time: 514.10 ± 166.50 min
  WASO: 88.29 ± 20.62 min
[5]; 75mg, Actigraphy 3
  Awakenings: 11.71±2.54£2
  Sleep latency: 7.33 ± 7.90 min
  Total sleep time: 498.60 ± 126.30 min
  WASO: 83.44 ± 32.30 min
[5]; no dose stated, Actigraphy 1
  Awakenings: 12.84±3.37@
  Sleep latency: 6.37 ± 5.60 min
  Total sleep time: 470.90 ± 122.70 min
  WASO: 84.20 ± 26.09 min
[5]; no dose stated, Actigraphy 2
  Awakenings: 10.92±2.89
  Sleep latency: 6.47 ± 6.51 min
  Total sleep time: 491.90 ± 121.50 min
[5]; no dose stated, Actigraphy 3
  Awakenings: 11.49±3.186@#
  Sleep latency: 5.50 ± 5.97 min
  Total sleep time: 484.50 ± 104.00 min
  WASO: 73.00 ± 26.45 min
[6]
  pKa: 6.74
